Experiments:
[1] = tested on: E. coli bacteria; assay: Growth test of E. coli, 15 s exposure (Example 5); type: cell-based; conditions: exposed 15 seconds
Protocol: (§1) Both S. marcescens and E. coil were cultured in CASO broth overnight. The cells were exposed to one of four compounds for 15 seconds: DE broth, 60% Isopropyl Alcohol (IPA), A hand sanitizer on the market with 62% ethanol as an active ingredient (HSM), and the hand sanitizer specified in the patent (WB). The samples were then diluted by factors of powers of ten from a 10^−1 dilution to a 10^−10 dilution. 0.1 mL of each dilution was then plated onto a CASO plate, and then incubated for 24 hours. For Example 5, there was no ethanol present in the hand sanitizer formulation. The formulation consisted of 45% by volume of n-butanol, 10% of the humectant, and the remainder being water. The protocol followed for Example 5 was the same as the protocol for Example 4.

[2] = tested on: S. marcescens bacteria; assay: Growth test of S. marcescens, 15 s exposure, CASO plate (Example 4); type: cell-based; conditions: exposed 15 seconds, 0.1 mL plated
Protocol: (§2) Both S. marcescens and E. coil were cultured in CASO broth overnight. The cells were exposed to one of four compounds for 15 seconds: DE broth, 60% Isopropyl Alcohol (IPA), A hand sanitizer on the market with 62% ethanol as an active ingredient (HSM), and the hand sanitizer specified in the patent (WB). The samples were then diluted by factors of powers of ten from a 10^−1 dilution to a 10^−10 dilution. 0.1 mL of each dilution was then plated onto a CASO plate, and then incubated for 24 hours. Note—the abbreviation “TNTC” stands for “too numerous to count”. “Lawn” represents a sample that was filled with bacteria.

[3] = tested on: S. marcescens bacteria; assay: Growth test of S. marcescens, 15 s exposure (Example 5); type: cell-based; conditions: exposed 15 seconds
Protocol: as §1

[4] = tested on: E. coli bacteria; assay: Growth test of E. coli, 15 s exposure, CASO plate (Example 4); type: cell-based; conditions: exposed 15 seconds, 0.1 mL plated
Protocol: as §2

[5] = tested on: E. coli bacteria; assay: Growth test of E. coli, different growth medium, 0.5 mL plated (Example 3); type: cell-based; conditions: exposed 10 s
Protocol: A 50 mL culture of the bacterium […] marcescens (S. marcescens) was grown, and four compounds were tested: an ethanol-based hand sanitizer currently on the market with 63% ethyl alcohol as the active ingredient, 60% isopropyl alcohol, and water as a control. 0.05 mL of the culture was exposed to one of the compounds for 15 and 60 seconds (except for the water, which was exposed for 30 seconds), and diluted by factors of powers of ten from a 10^-1 dilution to a 10^-10 dilution. 1 mL of each dilution was plated onto a CASO (a type of media) plate, and was incubated at 25 degrees Celsius (77 degrees Fahrenheit) for 48 hours. The colonies on the plates were then counted. The following is a table of the number of colonies on each plate (note-“Lawn” means that there were too many colonies to count individually). Example 2 followed the same protocol as Example 1, except E. coli bacteria were used instead of S. marcescens. Example 3 followed the same protocol as Example 2, except for the following: A different type of growth medium was used on the plates, and 0.5 mL of culture was plated onto each plate instead of 1 mL in order to prevent flooding the plate. In this Example, 60% isopropanol, an ethanol-based hand sanitizer on the market and the hand sanitizer proposed in the patent were all exposed to bacteria for 10 seconds, than plated.

[6] = tested on: E. coli bacteria; assay: Growth test of E. coli after exposure to sanitizer, dilution plating (Example 2); type: cell-based
Protocol: A 50 mL culture of the bacterium […] marcescens (S. marcescens) was grown, and four compounds were tested: an ethanol-based hand sanitizer currently on the market with 63% ethyl alcohol as the active ingredient, 60% isopropyl alcohol, and water as a control. 0.05 mL of the culture was exposed to one of the compounds for 15 and 60 seconds (except for the water, which was exposed for 30 seconds), and diluted by factors of powers of ten from a 10^-1 dilution to a 10^-10 dilution. 1 mL of each dilution was plated onto a CASO (a type of media) plate, and was incubated at 25 degrees Celsius (77 degrees Fahrenheit) for 48 hours. The colonies on the plates were then counted. The following is a table of the number of colonies on each plate (note-“Lawn” means that there were too many colonies to count individually). Example 2 followed the same protocol as Example 1, except E. coli bacteria were used instead of S. marcescens.

[7] = tested on: Seratia marcescens (S. marcescens); assay: Growth test of S. marcescens after exposure to sanitizer, dilution plating (Example 1); type: cell-based
Protocol: A 50 mL culture of the bacterium […] marcescens (S. marcescens) was grown, and four compounds were tested: an ethanol-based hand sanitizer currently on the market with 63% ethyl alcohol as the active ingredient, 60% isopropyl alcohol, and water as a control. 0.05 mL of the culture was exposed to one of the compounds for 15 and 60 seconds (except for the water, which was exposed for 30 seconds), and diluted by factors of powers of ten from a 10^-1 dilution to a 10^-10 dilution. 1 mL of each dilution was plated onto a CASO (a type of media) plate, and was incubated at 25 degrees Celsius (77 degrees Fahrenheit) for 48 hours. The colonies on the plates were then counted. The following is a table of the number of colonies on each plate (note-“Lawn” means that there were too many colonies to count individually).

[8] = tested on: microorganisms; conditions: 1996 paper, Fundamental and Applied Toxicology; cited from earlier work

SMILES: CC(C)O [IPA, isopropyl alcohol]
- growth test plate count ([1]; 10^−1 dilution): 0
- growth test plate count ([1]; 10^−2 dilution): 0
- growth test plate count ([1]; 10^−3 dilution): 0
- growth test plate count ([1]; 10^−4 dilution): 0
- growth test plate count ([1]; 10^−5 dilution): 0
- growth test plate count ([2]; 10^−1 dilution): 1
- growth test plate count ([2]; 10^−2 dilution): 3
- growth test plate count ([2]; 10^−3 dilution): 10
- growth test plate count ([2]; 10^−4 dilution): 6
- growth test plate count ([2]; 10^−5 dilution): 2
- growth test plate count ([3]; 10^−1 dilution): 0
- growth test plate count ([3]; 10^−2 dilution): 0
- growth test plate count ([3]; 10^−3 dilution): 0
- growth test plate count ([3]; 10^−4 dilution): 0
- growth test plate count ([3]; 10^−5 dilution): 0
- growth test plate count ([4]; 10^−1 dilution): 0
- growth test plate count ([4]; 10^−2 dilution): 0
- growth test plate count ([4]; 10^−3 dilution): 0
- growth test plate count ([4]; 10^−4 dilution): 0
- growth test plate count ([4]; 10^−5 dilution): 0
- number of colonies on plate ([5]; 10^−1 dilution): 0 colonies
- number of colonies on plate ([5]; 10^−2 dilution): 0 colonies
- number of colonies on plate ([5]; 10^−3 dilution): 0 colonies
- number of colonies on plate ([5]; 10^−4 dilution): 0 colonies
- number of colonies on plate ([5]; 10^−5 dilution): 0 colonies
- number of colonies on plate ([5]; 10^−6 dilution): 0 colonies
- number of colonies on plate ([5]; 10^−7 dilution): 0 colonies
- number of colonies on plate ([5]; 10^−8 dilution): 0 colonies
- number of colonies on plate ([5]; 10^−9 dilution): 0 colonies
- number of colonies on plate ([5]; 10^−10 dilution): 0 colonies
- number of colonies on plate ([6]; exposed 15 s, 10^−1 dilution): 0 colonies
- number of colonies on plate ([6]; exposed 15 s, 10^−2 dilution): 0 colonies
- number of colonies on plate ([6]; exposed 15 s, 10^−3 dilution): 0 colonies
- number of colonies on plate ([6]; exposed 15 s, 10^−4 dilution): 0 colonies
- number of colonies on plate ([6]; exposed 15 s, 10^−5 dilution): 0 colonies
- number of colonies on plate ([6]; exposed 15 s, 10^−6 dilution): 0 colonies
- number of colonies on plate ([6]; exposed 15 s, 10^−7 dilution): 0 colonies
- number of colonies on plate ([6]; exposed 15 s, 10^−8 dilution): 0 colonies
- number of colonies on plate ([6]; exposed 15 s, 10^−9 dilution): 0 colonies
- number of colonies on plate ([6]; exposed 15 s, 10^−10 dilution): 0 colonies
- number of colonies on plate ([6]; exposed 60 s, 10^−1 dilution): 0 colonies
- number of colonies on plate ([6]; exposed 60 s, 10^−2 dilution): 0 colonies
- number of colonies on plate ([6]; exposed 60 s, 10^−3 dilution): 0 colonies
- number of colonies on plate ([6]; exposed 60 s, 10^−4 dilution): 0 colonies
- number of colonies on plate ([6]; exposed 60 s, 10^−5 dilution): 0 colonies
- number of colonies on plate ([6]; exposed 60 s, 10^−6 dilution): 0 colonies
- number of colonies on plate ([6]; exposed 60 s, 10^−7 dilution): 0 colonies
- number of colonies on plate ([6]; exposed 60 s, 10^−8 dilution): 0 colonies
- number of colonies on plate ([6]; exposed 60 s, 10^−9 dilution): 0 colonies
- number of colonies on plate ([6]; exposed 60 s, 10^−10 dilution): 0 colonies
- number of colonies on plate ([7]; exposed 15 s, 10^−1 dilution): 0 colonies
- number of colonies on plate ([7]; exposed 15 s, 10^−2 dilution): 0 colonies
- number of colonies on plate ([7]; exposed 15 s, 10^−3 dilution): 0 colonies
- number of colonies on plate ([7]; exposed 15 s, 10^−4 dilution): 0 colonies
- number of colonies on plate ([7]; exposed 15 s, 10^−5 dilution): 0 colonies
- number of colonies on plate ([7]; exposed 15 s, 10^−6 dilution): 0 colonies
- number of colonies on plate ([7]; exposed 15 s, 10^−7 dilution): 0 colonies
- number of colonies on plate ([7]; exposed 15 s, 10^−8 dilution): 0 colonies
- number of colonies on plate ([7]; exposed 15 s, 10^−9 dilution): 0 colonies
- number of colonies on plate ([7]; exposed 15 s, 10^−10 dilution): 0 colonies
- number of colonies on plate ([7]; exposed 60 s, 10^−1 dilution): 0 colonies
- number of colonies on plate ([7]; exposed 60 s, 10^−2 dilution): 0 colonies
- number of colonies on plate ([7]; exposed 60 s, 10^−3 dilution): 0 colonies
- number of colonies on plate ([7]; exposed 60 s, 10^−4 dilution): 0 colonies
- number of colonies on plate ([7]; exposed 60 s, 10^−5 dilution): 0 colonies
- number of colonies on plate ([7]; exposed 60 s, 10^−6 dilution): 0 colonies
- number of colonies on plate ([7]; exposed 60 s, 10^−7 dilution): 0 colonies
- number of colonies on plate ([7]; exposed 60 s, 10^−8 dilution): 0 colonies
- number of colonies on plate ([7]; exposed 60 s, 10^−9 dilution): 0 colonies
- number of colonies on plate ([7]; exposed 60 s, 10^−10 dilution): 0 colonies

SMILES: CCCO [1-propanol]
- effectiveness in killing microorganisms compared with ethanol [8]: more effective

SMILES: CCCCCO [1-pentanol]
- effectiveness in killing microorganisms compared with ethanol [8]: more effective

SMILES: CCCCO [1-butanol]
- effectiveness in killing microorganisms compared with ethanol [8]: more effective

From patent US9456602B2, “Method for the formulation of hand sanitizer” (Working Bugs, LLC, priority 2011, dated 2016)
